In this assay the target is T1, PRMT5/MEP50 (Homo sapiens, UniProt O14744).
T1 construct: Flag-PRMT5; 6His-MEP50
T1 sequence (O14744 with tags, fused parts or gaps): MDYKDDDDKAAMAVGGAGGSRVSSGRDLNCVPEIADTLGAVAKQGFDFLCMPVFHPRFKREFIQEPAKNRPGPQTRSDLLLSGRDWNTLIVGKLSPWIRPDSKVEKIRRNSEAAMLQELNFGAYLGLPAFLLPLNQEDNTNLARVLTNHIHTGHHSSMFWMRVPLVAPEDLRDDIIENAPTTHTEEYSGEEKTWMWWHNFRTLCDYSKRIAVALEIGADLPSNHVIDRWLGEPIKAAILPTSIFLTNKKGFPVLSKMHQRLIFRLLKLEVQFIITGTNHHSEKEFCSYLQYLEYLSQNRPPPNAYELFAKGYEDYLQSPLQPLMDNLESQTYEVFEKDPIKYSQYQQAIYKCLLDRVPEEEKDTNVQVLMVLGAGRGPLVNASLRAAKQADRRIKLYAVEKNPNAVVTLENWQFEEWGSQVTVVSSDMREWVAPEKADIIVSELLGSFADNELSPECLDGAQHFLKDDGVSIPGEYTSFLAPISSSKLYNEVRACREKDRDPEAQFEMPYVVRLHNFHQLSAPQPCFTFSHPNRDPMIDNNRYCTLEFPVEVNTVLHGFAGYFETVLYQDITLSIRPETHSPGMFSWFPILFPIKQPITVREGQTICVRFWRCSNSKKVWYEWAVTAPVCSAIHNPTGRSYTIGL
T1 sequence (Q9BQA1 with tags, fused parts or gaps partner): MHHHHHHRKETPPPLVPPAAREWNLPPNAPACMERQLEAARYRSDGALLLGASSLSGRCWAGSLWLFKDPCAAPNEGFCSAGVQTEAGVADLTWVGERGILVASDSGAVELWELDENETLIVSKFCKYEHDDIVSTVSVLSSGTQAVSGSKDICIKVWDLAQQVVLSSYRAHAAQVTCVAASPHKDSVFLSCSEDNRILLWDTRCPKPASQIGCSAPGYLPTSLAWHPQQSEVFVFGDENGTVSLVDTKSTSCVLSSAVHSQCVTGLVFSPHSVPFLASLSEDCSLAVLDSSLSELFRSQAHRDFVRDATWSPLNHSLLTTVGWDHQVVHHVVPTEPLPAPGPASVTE
As to the kind of experiment: PRMT5 Biochemical Assay (PRMT5/MEP50 enzyme assay on peptide substrate, 3H-SAM Flashplate). Put shortly:
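FLAG-PRMT5/His-MEP50 from Sf9 cells (4 nM) preincubated 30 min at 25 °C with compound in 20 mM Bicine pH 7.6, 1 mM TCEP, 1% DMSO. Reaction started with 75 nM 3H-SAM on 40 nM biotinylated H4 1-15 peptide, stopped with cold SAM. Bound 3H-peptide counted on streptavidin Flashplates, normalised to DMSO and 100 uM SAH controls.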
A word on the IC50: it is the point on the concentration scale where inhibition reaches its midpoint. Regarding `OC(COc1cccc(-c2ccccc2Oc2ccccc2)c1)CN1CCc2ccccc2C1` (stereo not shown) [Compound 167, 1-(3,4-dihydroisoquinolin-2(1H)-yl)-3-((2′-phenoxy-[1,1′-biphenyl]-3-yl)oxy)propan-2-ol], the IC50 lay in the range of 101 to 1000 nM.
In the case of `OC(COc1cccc(N2CCc3[nH]nc(-c4ccccc4)c3C2)c1)CN1CCc2ccccc2C1` (stereo not shown) [Compound 194] it was 1000 to 10000 nM; in that of `CC(=O)N1CCC(n2cnc3ccc(-c4cccc(OCC(O)CN5CCc6ccccc6C5)c4)cc32)CC1` (stereo not shown) [Compound 228, 1-(4-(6-(3-(3-(3,4-dihydroisoquinolin-2(1H)-yl)-2-hydroxypropoxy)phenyl)-1H-benzo[d]imidazol-1-yl)piperidin-1-yl)ethanone], 101 to 1000 nM; in that of `Cn1cnc2ccc(-c3ccnc(NCC(O)CN4CCc5ccccc5C4)n3)cc21` (stereo not shown) [Compound 119], 101 to 1000 nM.
The same measure for `Cn1cnc2ccc(-c3cc(NCC(O)CN4CCc5ccccc5C4)ncn3)cc21` (stereo not shown) [Compound 207]: 101 to 1000 nM.
In the case of `CC(=O)c1ccc(-c2cccc(OCC(O)CN3CCc4ccccc4C3)c2)cc1` (stereo not shown) [Compound 137], the IC50 fell in the range of 101 to 1000 nM.
The same measure for `O=C(Nc1ccccn1)c1cccc(OCC(O)CN2CCc3ccccc3C2)c1` (stereo not shown) [Compound 267]: 101 to 1000 nM; for `O=C(c1ccc(Cn2nccc2-c2ccc(OCC(O)CN3CCc4ccccc4C3)cc2)cc1)N1CCCC1` (stereo not shown) [Compound 31, (4-((5-(4-(3-(3,4-dihydroisoquinolin-2(1H)-yl)-2-hydroxypropoxy)phenyl)-1H-pyrazol-1-yl)methyl)phenyl)(pyrrolidin-1-yl)methanone]: 101 to 1000 nM; for `CC(=O)N1CCC(n2cnc3cnc(-c4cccc(OCC(O)CN5CCc6ccccc6C5)c4)nc32)CC1` (stereo not shown) [Compound 243]: 101 to 1000 nM.
In the case of `CC(=O)N1CCC(n2cnc3ccc(-c4ccnc(NCC(O)CN5CCc6ccccc6C5)c4)cc32)CC1` (stereo not shown) [Compound 242] it was 101 to 1000 nM.
In the case of `OC(COc1cccc(-c2ccc(C(F)(F)F)cc2Cl)c1)CN1CCc2ccccc2C1` (stereo not shown) [Compound 127] it was 101 to 1000 nM; in that of `CN1CCN(C(=O)Cn2cnc3ccc(-c4cccc(OCC(O)CN5CCc6ccccc6C5)c4)cc32)CC1` (stereo not shown) [Compound 270], 101 to 1000 nM.
Take `COc1ccc(Cl)c(-c2cccc(OCC(O)CN3CCc4ccccc4C3)c2)c1` (stereo not shown) [Compound 64]: the IC50 was in the range of 1000 to 10000 nM.
Take `OC(COc1cccc(-c2ccc(C(F)(F)F)cc2)c1)CN1CCc2ccccc2C1` (stereo not shown) [Compound 133]: the 50% inhibitory concentration (IC50) lay within 1000 to 10000 nM.
The same measure for `O=C(Nc1cccc(OCC(O)CN2CCc3ccccc3C2)c1)c1cocn1` (stereo not shown) [Compound 159]: 1000 to 10000 nM; for `O=C1NCc2ccc(-c3cccc(OCC(O)CN4CCc5ccccc5C4)c3)cc21` (stereo not shown) [Compound 148]: 101 to 1000 nM.
As to `OC(COc1ccc(OCc2ccccc2)cc1)CN1CCc2ccccc2C1` (stereo not shown) [Compound 19], the IC50 was in the range of 1000 to 10000 nM.
In the case of `OC(COc1cccc(-c2ccccc2)c1)CN1CCc2ccccc2C1` (stereo not shown) [Compound 43, 1-([1,1′-biphenyl]-3-yloxy)-3-(3,4-dihydroisoquinolin-2(1H)-yl) propan-2-ol] it was 101 to 1000 nM.
The same measure for `Cn1cnc(C(=O)Nc2cccc(OCC(O)CN3CCc4ccccc4C3)c2)c1` (stereo not shown) [Compound 183]: 1000 to 10000 nM.
The same measure for `OC(COc1cccc(-c2ccc3[nH]ncc3c2)c1)CN1CCc2ccccc2C1` (stereo not shown) [Compound 107]: 101 to 1000 nM.
`CC1c2ccccc2CCN1CC(O)COc1cccc(-c2ccc3ncn(C)c3c2)c1` (stereo not shown) [Compound 80]: the IC50 fell in the range of 101 to 1000 nM.
The same measure for `COc1cccc(COCC(O)CN2CCc3ccccc3C2)c1` (stereo not shown) [Compound 288]: 1000 to 10000 nM; for `OC(COc1cccc(CNC2CCOCC2)c1)CN1CCc2ccccc2C1` (stereo not shown) [Compound 5, 1-(3,4-dihydroisoquinolin-2(1H)-yl)-3-(3-(((tetrahydro-2H-pyran-4-yl)amino)methyl)phenoxy)propan-2-ol]: 101 to 1000 nM; for `OCc1cccc(-c2cccc(OCC(O)CN3CCc4ccccc4C3)c2)c1` (stereo not shown) [Compound 72, 1-(3,4-dihydroisoquinolin-2(1H)-yl)-3-((3′-(hydroxymethyl)-[1,1′-biphenyl]-3-yl)oxy)propan-2-ol]: 101 to 1000 nM.
In the case of `OC(COc1cccc(-c2ccc3ncn(C4CCOCC4)c3c2)c1)CN1CCc2ccccc2C1` (stereo not shown) [Compound 103, 1-(3,4-dihydroisoquinolin-2(1H)-yl)-3-(3-(1-(tetrahydro-2H-pyran-4-yl)-1H-benzo[d]imidazol-6-yl)phenoxy)propan-2-ol] it was 101 to 1000 nM.
As to `COc1ccc(-c2cccc(OCC(O)CN3CCc4ccccc4C3)c2)cc1Cl` (stereo not shown) [Compound 168], the concentration for half-maximal inhibition (IC50) is 101 to 1000 nM.
In the case of `O=C(Cn1ccc2cnc(-c3cccc(OCC(O)CN4CCc5ccccc5C4)c3)nc21)N1CCCCC1` (stereo not shown) [Compound 232] it was 101 to 1000 nM; in that of `Cc1cc(OCC(O)CN2CCc3ccccc3C2)c(C)cc1CN1CCOCC1` (stereo not shown) [Compound 17], 101 to 1000 nM; in that of `OC(COC1CCCN(c2ccccc2)C1)CN1CCc2ccccc2C1` (stereo not shown) [Compound 2], 1000 to 10000 nM.
On to `Cn1ccc2ccc(-c3cccc(OCC(O)CN4CCc5ccccc5C4)c3)cc21` (stereo not shown) [Compound 147], for which the concentration for half-maximal inhibition (IC50) is 101 to 1000 nM.
The same measure for `OC(COc1cccc(-c2cccnc2F)c1)CN1CCc2ccccc2C1` (stereo not shown) [Compound 139]: 101 to 1000 nM.
For the compound `OC(COCc1c(Cl)cccc1Cl)CN1CCc2ccccc2C1` (stereo not shown) [Compound 280], the 50% inhibitory concentration (IC50) is 1000 to 10000 nM.
The same measure for `OC(COc1cccc(-c2cc(OC(F)(F)F)ccc2Cl)c1)CN1CCc2ccccc2C1` (stereo not shown) [Compound 200]: 101 to 1000 nM; for `Cn1cnc2ccc(-c3cc(NCC(O)CN4CCc5ccccc5C4)n[nH]3)cc21` (stereo not shown) [Compound 271, 1-(3,4-dihydroisoquinolin-2(1H)-yl)-3-((5-(1-methyl-1H-benzo[d]imidazol-6-yl)-1H-pyrazol-3-yl)amino)propan-2-ol]: 101 to 1000 nM; for `Cn1ccc(C(=O)Nc2cccc(OCC(O)CN3CCc4ccccc4C3)c2)n1` (stereo not shown) [Compound 162]: 1000 to 10000 nM.
In the case of `COc1ccc(Cn2cnc3ccc(-c4cccc(OCC(O)CN5CCc6ccccc6C5)c4)cc32)cc1` (stereo not shown) [Compound 82, 1-(3,4-dihydroisoquinolin-2(1H)-yl)-3-(3-(1-(4-methoxybenzyl)-1H-benzo[d]imidazol-6-yl)phenoxy)propan-2-ol] it was 101 to 1000 nM.
As for `CC(C)n1cnc2ccc(-c3cccc(OCC(O)CN4CCc5ccccc5C4)c3)cc21` (stereo not shown) [Compound 81], the 50% inhibitory concentration (IC50) was in the range of 101 to 1000 nM.
The same measure for `OC(COc1ccccc1C1CCCCC1)CN1CCc2ccccc2C1` (stereo not shown) [Compound 8]: 1000 to 10000 nM; for `Oc1cccc(-c2cccc(OCC(O)CN3CCc4ccccc4C3)c2)c1` (stereo not shown) [Compound 95]: 101 to 1000 nM.
In the case of `Cn1cnc2ccc(N3CCCC(OCC(O)CN4CCc5ccccc5C4)C3)cc21` (stereo not shown) [Compound 66] it was 101 to 1000 nM; in that of `OC(COc1cccc(-c2cnccn2)c1)CN1CCc2ccccc2C1` (stereo not shown) [Compound 155], 1000 to 10000 nM.
Regarding `OC(COc1cccc(-c2cncc(F)c2)c1)CN1CCc2ccccc2C1` (stereo not shown) [Compound 76], the half-inhibitory concentration (IC50) is 1000 to 10000 nM.
Take `CCCCNCc1cccc(COCC(O)CN2CCc3ccccc3C2)c1` (stereo not shown) [Compound 286]: the IC50 was in the range of 101 to 1000 nM.
In the case of `Cc1cccc2c1CCN(CC(O)COc1cccc(-c3ccc4ncn(C)c4c3)c1)C2` (stereo not shown) [Compound 213] it was 1000 to 10000 nM.
The same measure for `COC(COc1cccc(CNC2CCCC2)c1)CN1CCc2ccccc2C1` (stereo not shown) [Compound 32]: 1000 to 10000 nM; for `N#Cc1ccc(-c2cccc(OCC(O)CN3CCc4ccccc4C3)c2)cc1` (stereo not shown) [Compound 94]: 101 to 1000 nM.
In the case of `O=C(Nc1cccc(OCC(O)CN2CCc3ccccc3C2)c1)c1cnco1` (stereo not shown) [Compound 158] it was 1000 to 10000 nM.
On to `OC(COc1cccc(-c2cc(C(F)(F)F)ccc2Cl)c1)CN1CCc2ccccc2C1` (stereo not shown) [Compound 62, 1-((2′-chloro-5′-(trifluoromethyl)-[1,1′-biphenyl]-3-yl)oxy)-3-(3,4-dihydroisoquinolin-2(1H)-yl)propan-2-ol], for which the half-inhibitory concentration (IC50) lay in the range of 101 to 1000 nM.
Take `CNC(=O)c1cncc(-c2cccc(OCC(O)CN3CCc4ccccc4C3)c2)c1` (stereo not shown) [Compound 182]: the IC50 was 1000 to 10000 nM.
The same measure for `Cn1nccc1C(=O)Nc1cccc(OCC(O)CN2CCc3ccccc3C2)c1` (stereo not shown) [Compound 160]: 1000 to 10000 nM; for `CC(=O)N1CCC(Nc2cc(CNCC(O)CN3CCc4ccccc4C3)ccn2)CC1` (stereo not shown) [Compound 313]: greater than 10000 nM.
For `Cn1ncc2c1CN(c1cccc(OCC(O)CN3CCc4ccccc4C3)c1)CC2` (stereo not shown) [Compound 216, 1-(3,4-dihydroisoquinolin-2(1H)-yl)-3-(3-(1-methyl-4,5-dihydro-1H-pyrazolo[3,4-c]pyridin-6(7H)-yl)phenoxy)propan-2-ol], the concentration for half-maximal inhibition (IC50) lay within 101 to 1000 nM.
Take `Cc1nn(-c2ccccc2)c(C)c1COCC(O)CN1CCc2ccccc2C1` (stereo not shown) [Compound 28]: the half-inhibitory concentration (IC50) lay within 1000 to 10000 nM.
In the case of `CC(C)Oc1ccc(F)c(-c2cccc(OCC(O)CN3CCc4ccccc4C3)c2)c1` (stereo not shown) [Compound 201] it was 101 to 1000 nM; in that of `OC(COC1CCCCCC1)CN1CCc2ccccc2C1` (stereo not shown) [Compound 309], 1000 to 10000 nM.
For `O=C(Cn1ccc2cnc(-c3cccc(OCC(O)CN4CCc5ccccc5C4)c3)nc21)N1CCCC1` (stereo not shown) [Compound 231], the IC50 lay in the range of 101 to 1000 nM.
The same measure for `CC(C(O)COc1cccc(CNC2CCCC2)c1)N1CCc2ccccc2C1` (stereo not shown) [Compound 33]: 1000 to 10000 nM; for `OC(CNc1cccc(CNC2CCCC2)c1)CN1CCc2ccccc2C1` (stereo not shown) [Compound 39, 1-((3-((cyclopentylamino)methyl)phenyl)amino)-3-(3,4-dihydroisoquinolin-2(1H)-yl)propan-2-ol]: 101 to 1000 nM; for `COc1cccc(-c2cccc(OCC(O)CN3CCc4ccccc4C3)c2)c1` (stereo not shown) [Compound 74]: 101 to 1000 nM.
The same measure for `COc1ccccc1-c1cccc(OCC(O)CN2CCc3ccccc3C2)c1` (stereo not shown) [Compound 71]: 1000 to 10000 nM; for `CN(C(=O)c1cocn1)c1cccc(OCC(O)CN2CCc3ccccc3C2)c1` (stereo not shown) [Compound 198]: 10000 to 40000 nM.

The record behind these values is patent US20180298010A1, “PRMT5 INHIBITORS AND USES THEREOF” (Epizyme, Inc., priority 2012, published 2018).
